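Briefly, cells in 96-well plates were exposed to five compound concentrations for 48 h, and endpoints were estimated by linear interpolation. GI50 = concentration required for 50% inhibition of growth. The concentration for full growth arrest is given as TGI.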
Columns and labels:
Experiment in all cases: DTP human tumour cell line panel, 48 h
NCI-H226 lung = tested on: NCI-H226 lung
CCRF-CEM leukemia = tested on: CCRF-CEM leukemia
SK-MEL-2 melanoma = tested on: SK-MEL-2 melanoma
MALME-3M melanoma = tested on: MALME-3M melanoma
SNB-19 CNS = tested on: SNB-19 CNS
SK-OV-3 ovarian = tested on: SK-OV-3 ovarian
OVCAR-5 ovarian = tested on: OVCAR-5 ovarian
SF-268 CNS = tested on: SF-268 CNS
BT-549 breast = tested on: BT-549 breast
MDA-MB-231 breast = tested on: MDA-MB-231 breast

SMILES | GI50 (NCI-H226 lung) [µM] | TGI (NCI-H226 lung) [µM] | GI50 (CCRF-CEM leukemia) [µM] | TGI (CCRF-CEM leukemia) [µM] | GI50 (SK-MEL-2 melanoma) [µM] | TGI (SK-MEL-2 melanoma) [µM] | GI50 (MALME-3M melanoma) [µM] | TGI (MALME-3M melanoma) [µM] | GI50 (SNB-19 CNS) [µM] | TGI (SNB-19 CNS) [µM] | GI50 (SK-OV-3 ovarian) [µM] | TGI (SK-OV-3 ovarian) [µM] | GI50 (OVCAR-5 ovarian) [µM] | TGI (OVCAR-5 ovarian) [µM] | GI50 (SF-268 CNS) [µM] | TGI (SF-268 CNS) [µM] | GI50 (BT-549 breast) [µM] | TGI (BT-549 breast) [µM] | GI50 (MDA-MB-231 breast) [µM] | TGI (MDA-MB-231 breast) [µM]
Oc1ccc(-c2[nH]c3ccccc3c2-c2nc3ccccc3o2)cc1 | 3.14 | 15.3 | 4.91 | 46.2 | 3.03 | 12.3 | 7.47 | 28.3 | 6.77 | 22.1 | 5.03 | 17.3 | 4.49 | 17.2 | 2.89 | 12.9 | 5.41 | 18.8 | 1.47 | 5.64
NCC(Cc1ccccc1)P(=O)(O)O (centres undefined) | – | > 100 | – | > 100 | – | > 100 | – | > 100 | – | > 100 | – | > 100 | – | > 100 | – | > 100 | – | > 100 | – | > 100
CCN(CCNc1ccc(C)c2sc3cc(Cl)ccc3c(=O)c12)CC(C)(C)O | 14 | 30.7 | 7.5 | 61 | 3.28 | 14.2 | 2.16 | 7.3 | 10.1 | 25.8 | 6.21 | 20.4 | 10.5 | 27.7 | 16.5 | 69.4 | 18.7 | > 100 | 2.31 | 11.5
Nc1c(C(=O)Nc2ccccn2)sc2nc3c(cc12)CCCCCC3 | 3.15 | 18.5 | 0.355 | > 50 | 0.965 | 9.83 | 1.26 | 13.8 | 1.22 | 13.8 | 1.91 | 15.2 | 2.67 | 17.9 | 2.48 | 22.6 | 0.524 | 18 | 2.5 | 15.2
O=S(=O)(NCCCNc1nccc(-c2c(-c3cccc(F)c3)nc3occn23)n1)c1cccc2ccccc12 | 5.12 | > 100 | 5.48 | > 100 | 6.99 | > 100 | 5.24 | > 100 | 9.41 | > 100 | 3.76 | > 100 | 9.6 | > 100 | 7.39 | > 100 | 4.44 | > 100 | 3.13 | > 100
CCN(CC)Cc1cc(Nc2cc(C(F)(F)F)c(C#N)c3nc4ccccc4n23)ccc1O | 1.34 | 10.4 | 2.79 | > 100 | 1.35 | 7.81 | 1.19 | 5.82 | 4.39 | 36.2 | 1.98 | 8.59 | 4.84 | 23.4 | 2.51 | 18.3 | 2.36 | 8.75 | 1.95 | 5.33
CCOC(=O)C1=C(C)N(Cc2ccc(Cl)cc2Cl)[C@]2(C#N)C(O)=C(Cl)C(Cl)=C(O)[C@]12C#N | > 100 | > 100 | 18.4 | 37.3 | > 100 | > 100 | > 100 | > 100 | 92.8 | > 100 | > 100 | > 100 | 2.7 | 31.3 | 42.1 | > 100 | 21.1 | > 100 | 26.7 | 98.9
Cc1cc(-c2ccco2)cc(C)c1/C=C/c1cncc(-c2nn[nH]n2)c1 | > 25 | > 25 | > 25 | > 25 | > 25 | > 25 | > 25 | > 25 | > 25 | > 25 | > 25 | > 25 | > 25 | > 25 | > 25 | > 25 | > 25 | > 25 | > 25 | > 25
N#Cc1cccc(C2C3=C(COC3=O)N(CCO)c3cc4c(cc32)CCC4)c1 (centres undefined) | 1.67 | > 50 | 0.187 | > 50 | 0.319 | > 44.5 | 0.173 | > 50 | 0.18 | > 50 | 0.215 | > 30.5 | 0.237 | > 50 | 0.368 | > 50 | 0.182 | 5.35 | 0.22 | –
O=C(/C=C/c1cccc(Oc2ccc(Cl)cc2)c1)c1ccccc1 | 122 | 273 | 31.6 | 384 | 148 | 336 | 38.3 | 175 | 35.3 | 111 | 195 | 381 | 26.3 | 83.6 | 75.5 | 209 | 31.6 | 97.5 | 29.1 | 89
CN(c1ccc(NC(=O)NCCN2CCOCC2)cc1)c1ccnc(Nc2ccc(CS(C)(=O)=O)cc2)n1 | 9.18 | > 25 | > 25 | > 25 | > 25 | > 25 | > 25 | > 25 | > 25 | > 25 | > 25 | > 25 | > 25 | > 25 | > 25 | > 25 | > 25 | > 25 | > 25 | > 25
Cc1n(Cc2ccc3ccccc3n2)cc[n+]1Cc1ccc2ccccc2c1 | 0.965 | 8.36 | 1.07 | 11.5 | 0.522 | 2.99 | 0.394 | 2.37 | 0.438 | 12.1 | 1.16 | 5.03 | 1.67 | 13 | 0.784 | 14 | 0.64 | 4.1 | 0.665 | 4.08
CCN(CC)CCS(=O)(=O)CCNc1ccnc2cc(Cl)ccc12 | 4.61 | > 100 | 0.663 | > 38.6 | 2.35 | 14.1 | 2.15 | 13.3 | 6.69 | > 100 | 6.58 | 70.2 | 3.97 | > 100 | 2.86 | > 49.5 | 2.94 | 9.62 | 3.1 | > 100
CCc1ccc(C2=NN(c3ccc(S(C)(=O)=O)cc3)C(=O)CC2)cc1 | 14.6 | > 100 | 1.23 | > 21.6 | 1.24 | 98.4 | 3.58 | > 82.2 | 8.82 | > 100 | 2.34 | 12.4 | 6.47 | > 100 | 3.11 | > 100 | 0.513 | 16.3 | 3.32 | > 60.2
Cc1cn2c(/C=C3/C(=O)Nc4ccc(C(=O)O)cc43)c(C)nc2s1 | > 100 | > 100 | > 100 | > 100 | > 100 | > 100 | > 100 | > 100 | > 100 | > 100 | > 100 | > 100 | > 100 | > 100 | > 100 | > 100 | > 100 | > 100 | > 100 | > 100
O=c1c2ccccc2n2cnc3ccc(NCCNCCO)c1c32 | – | 6.5 | – | > 47.3 | – | 8.8 | – | 9.3 | – | 22.6 | – | 19.6 | – | 5.84 | – | 8.01 | – | 16.6 | – | 6.58
C=CC[PH+](c1ccccc1)c1ccccc1.C=CC[PH+](c1ccccc1)c1ccccc1.[Pt+2].[S-]c1ncccn1.[S-]c1ncccn1 | 16.6 | 39.9 | 3.17 | > 100 | 47.4 | > 100 | 2.5 | 10.4 | 58.9 | > 100 | > 100 | > 100 | 15.1 | 34.6 | 25.9 | > 100 | 25.1 | > 100 | 5.68 | 52.8

Source: PubChem BioAssay (NCI)
